Results taken from US10538561B2, “Peptide for treating inflammatory diseases” (priority 2015, dated 2020).

Assays:
[1] = system: IL-6; test: LPS+PMA stimulated IL-6 secretion in HaCaT; type: cell-based, Human; details: 24 h
Description: Effect on pro-inflammatory cytokines against TNF-α/LPS+PMA stimulation: TNF-α; IFN-γ; TARC; TSLP; IL-6; IL-8: Cell lines: Human keratinocytes (HaCaT); test item (TI); IS181; experimental steps: pre-treatment of cells with TI for 2 hours; stimulation with TNF-α: 20 ng/ml; stimulation with LPS+PMA-10 μg/ml LPS+40 ng/ml PMA; supernatant collection for cytokine analysis after 24 hours; concentration range: 0.1 μg/ml-100 μg/ml (duplicate wells); cytokines: TNF-α; IFN-γ; TARC; TSLP; IL-6; IL-8. Method of estimating cytokines: ELISA; positive control: dexamethasone.
Cell line: HaCaT (Human Keratinocytes); TI Treatment regimen: Pretreatment for 2 h; TI Concentration range: 0.1 μg/ml-100 μg/ml (duplicate wells); TNF-α stimulation: 20 ng/ml; LPS+PMA stimulation: 10 μg/ml LPS+40 ng/ml PMA; Time point for supernatants collection: 24 h; Method of estimation: ELISA; Positive control: Dexamethasone

[2] = target: JAK1 (Homo sapiens, UniProt P23458); test: Biochemical kinase assay JAK1
Chain of JAK1 (P23458 whole entry): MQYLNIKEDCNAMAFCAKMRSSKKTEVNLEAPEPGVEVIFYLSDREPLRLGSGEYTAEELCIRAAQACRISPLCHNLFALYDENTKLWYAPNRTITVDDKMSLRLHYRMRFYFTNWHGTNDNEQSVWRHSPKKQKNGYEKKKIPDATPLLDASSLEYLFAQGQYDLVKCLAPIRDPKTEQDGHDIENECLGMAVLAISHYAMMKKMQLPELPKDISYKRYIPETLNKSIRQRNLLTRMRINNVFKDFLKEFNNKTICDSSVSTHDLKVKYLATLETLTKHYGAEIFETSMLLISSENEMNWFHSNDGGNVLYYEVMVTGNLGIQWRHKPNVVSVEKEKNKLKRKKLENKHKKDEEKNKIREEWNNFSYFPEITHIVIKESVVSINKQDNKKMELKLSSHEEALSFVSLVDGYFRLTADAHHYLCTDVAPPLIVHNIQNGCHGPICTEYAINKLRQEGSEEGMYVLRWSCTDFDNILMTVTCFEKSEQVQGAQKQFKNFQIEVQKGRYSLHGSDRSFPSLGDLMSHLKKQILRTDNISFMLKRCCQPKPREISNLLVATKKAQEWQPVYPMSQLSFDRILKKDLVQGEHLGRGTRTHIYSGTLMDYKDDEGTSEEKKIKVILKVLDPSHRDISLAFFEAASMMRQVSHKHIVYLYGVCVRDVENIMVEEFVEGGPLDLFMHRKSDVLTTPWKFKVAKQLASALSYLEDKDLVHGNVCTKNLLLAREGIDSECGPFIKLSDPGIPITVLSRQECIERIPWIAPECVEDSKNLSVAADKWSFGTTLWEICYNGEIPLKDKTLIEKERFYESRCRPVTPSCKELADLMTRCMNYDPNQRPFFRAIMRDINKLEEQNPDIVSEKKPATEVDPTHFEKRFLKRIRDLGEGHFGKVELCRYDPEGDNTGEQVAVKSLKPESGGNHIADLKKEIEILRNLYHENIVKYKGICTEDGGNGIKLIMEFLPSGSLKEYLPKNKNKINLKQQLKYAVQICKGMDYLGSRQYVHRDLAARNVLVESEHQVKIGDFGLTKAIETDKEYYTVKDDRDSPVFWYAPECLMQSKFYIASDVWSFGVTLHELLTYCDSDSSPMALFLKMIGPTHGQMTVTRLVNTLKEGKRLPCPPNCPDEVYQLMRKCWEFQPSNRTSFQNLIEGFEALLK
Description: (§1) Test system: cell free assays; test items: IS181; concentrations tested: 1 ng/ml-5000 μg/ml; Kinases: a) Cell free assays: EGFR (ErbB1); FLT1 (VEGFR1); JAK1; JAK3 MAP2K1 (MEK1); PDGFRA (PDGFR alpha); PRKCA (PKC alpha); b) cell based assay: JAK-STAT.

[3] = in vitro; details: human
Description: The cells were then incubated for 72 hours. Percentage cytotoxicity was determined using MTT assay.

[4] = system: HaCaT (Human keratinocyte) cell line; test: Mitochondrial membrane potential by JC-1 assay; type: cell-based; details: 20 h
Description: For testing Apoptosis the Human Keratinocytes (HaCaT) cell line has been employed. The growth conditions are DMEM containing 1% FBS. […] Test concentration range is IS181 is tested at the highest (Qualitative analysis) effective concentrations selected on the basis of Quantitative JC-1 assay. The method of estimation is Mitochondrial membrane depolarization by JC-1 assay (Early apoptosis), LDH enzyme release (Necrosis). Treatment regimen & time points are JC-1 assay—Single addition, 20 h; LDH assay—Single addition, 24 h; Positive control: Triton-X-100, Doxorubicin-hydrochloride
Quantitative effect on Δψm (Red fluorescence/Green fluorescence) in HaCaT cells post 20 hours of treatment. […] Evaluation (Qualitative and quantitative) of differential JC-1 staining in treated cells after 20 h on incubation with the test peptides.

[5] = target: PDGFRA (PDGFR alpha) (Homo sapiens, UniProt P16234); test: Biochemical kinase assay PDGFRA; details: cell free, read-out: inhibition of PDGFRA (PDGRFR alpha)
Chain of PDGFRA (PDGFR alpha) (P16234 24-1089): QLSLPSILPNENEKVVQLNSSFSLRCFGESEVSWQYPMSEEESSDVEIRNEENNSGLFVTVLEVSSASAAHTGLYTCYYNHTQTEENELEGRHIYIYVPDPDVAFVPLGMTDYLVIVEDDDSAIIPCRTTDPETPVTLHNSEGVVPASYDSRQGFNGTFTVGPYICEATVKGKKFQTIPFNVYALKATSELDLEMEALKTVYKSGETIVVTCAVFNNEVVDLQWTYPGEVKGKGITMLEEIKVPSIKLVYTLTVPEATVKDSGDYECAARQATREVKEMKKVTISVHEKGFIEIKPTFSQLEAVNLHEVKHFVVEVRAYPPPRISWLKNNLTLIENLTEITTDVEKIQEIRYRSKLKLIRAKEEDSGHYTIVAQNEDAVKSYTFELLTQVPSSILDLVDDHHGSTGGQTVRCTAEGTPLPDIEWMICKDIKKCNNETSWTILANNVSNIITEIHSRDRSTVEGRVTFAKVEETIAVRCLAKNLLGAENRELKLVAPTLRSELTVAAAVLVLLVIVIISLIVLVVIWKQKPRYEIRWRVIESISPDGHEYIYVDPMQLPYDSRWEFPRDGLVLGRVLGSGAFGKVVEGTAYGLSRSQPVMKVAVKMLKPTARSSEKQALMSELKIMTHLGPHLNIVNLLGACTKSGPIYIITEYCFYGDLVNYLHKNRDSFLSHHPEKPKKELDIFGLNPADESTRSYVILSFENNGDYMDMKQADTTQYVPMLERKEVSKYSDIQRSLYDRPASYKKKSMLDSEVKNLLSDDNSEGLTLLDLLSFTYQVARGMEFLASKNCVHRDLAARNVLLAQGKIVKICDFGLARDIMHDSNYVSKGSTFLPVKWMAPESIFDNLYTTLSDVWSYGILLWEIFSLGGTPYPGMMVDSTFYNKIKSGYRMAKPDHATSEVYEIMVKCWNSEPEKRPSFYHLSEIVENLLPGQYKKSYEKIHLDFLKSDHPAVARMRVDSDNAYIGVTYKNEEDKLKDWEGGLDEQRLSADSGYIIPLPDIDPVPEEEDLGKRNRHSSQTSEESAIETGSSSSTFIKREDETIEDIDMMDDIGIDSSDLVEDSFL
Description: as §1

[6] = target: FLT1 (VEGFR1) (Homo sapiens, UniProt P17948); test: Biochemical kinase assay FLT1; details: cell free
Chain of FLT1 (VEGFR1) (P17948 27-1338): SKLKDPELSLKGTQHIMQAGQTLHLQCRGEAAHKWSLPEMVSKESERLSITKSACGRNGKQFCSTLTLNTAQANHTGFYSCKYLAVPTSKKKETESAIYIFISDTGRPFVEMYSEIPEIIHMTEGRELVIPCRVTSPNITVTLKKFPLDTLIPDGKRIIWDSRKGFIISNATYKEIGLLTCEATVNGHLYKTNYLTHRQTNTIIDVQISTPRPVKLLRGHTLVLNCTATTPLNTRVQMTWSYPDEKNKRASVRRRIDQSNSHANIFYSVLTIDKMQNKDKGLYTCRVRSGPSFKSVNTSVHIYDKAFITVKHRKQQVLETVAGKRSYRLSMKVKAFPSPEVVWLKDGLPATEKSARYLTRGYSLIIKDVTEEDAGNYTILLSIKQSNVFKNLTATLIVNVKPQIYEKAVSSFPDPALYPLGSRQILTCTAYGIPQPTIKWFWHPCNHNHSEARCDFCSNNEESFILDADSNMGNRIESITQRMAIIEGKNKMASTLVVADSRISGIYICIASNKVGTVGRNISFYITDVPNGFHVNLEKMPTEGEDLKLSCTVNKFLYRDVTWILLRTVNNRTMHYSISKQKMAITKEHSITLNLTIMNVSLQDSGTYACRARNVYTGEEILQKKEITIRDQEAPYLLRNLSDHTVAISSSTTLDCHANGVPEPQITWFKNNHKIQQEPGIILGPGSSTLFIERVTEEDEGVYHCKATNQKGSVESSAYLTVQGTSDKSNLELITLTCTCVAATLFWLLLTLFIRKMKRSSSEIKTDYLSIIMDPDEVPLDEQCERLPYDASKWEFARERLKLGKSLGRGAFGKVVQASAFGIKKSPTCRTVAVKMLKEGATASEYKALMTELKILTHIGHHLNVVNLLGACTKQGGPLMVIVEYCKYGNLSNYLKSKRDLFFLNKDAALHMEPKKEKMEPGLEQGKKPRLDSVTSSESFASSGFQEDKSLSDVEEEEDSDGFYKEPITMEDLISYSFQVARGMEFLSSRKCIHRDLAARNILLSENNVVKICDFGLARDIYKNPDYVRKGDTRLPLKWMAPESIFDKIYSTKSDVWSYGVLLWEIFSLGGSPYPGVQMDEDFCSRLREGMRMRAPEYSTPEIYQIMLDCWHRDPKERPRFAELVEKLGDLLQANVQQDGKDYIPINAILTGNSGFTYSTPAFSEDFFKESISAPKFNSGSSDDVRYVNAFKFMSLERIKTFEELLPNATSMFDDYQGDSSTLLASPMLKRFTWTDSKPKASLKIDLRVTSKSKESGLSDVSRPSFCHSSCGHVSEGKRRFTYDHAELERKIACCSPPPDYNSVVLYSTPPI
Description: as §1

[7] = Maximum feasible concentration and formulation stability; type: physicochemical
Description: The solution stability of peptide IS 181 was performed in four different diluents at three different temperatures for 24 hours. Four different pre-formulations of concentration 10 mg/ml were prepared and formulation assay was performed at initial and […] at room temperature.

[8] = system: Human Keratinocytes (HaCaT); test: TUNEL assay; type: cell-based; details: 48 h
Description: Cell lines: Human Keratinocytes (HaCaT); test item (TI): IS181; treatment regimen: treated twice (once after 24 hours)-48 hours; Concentration range: 100 6 g/ml-5000 6 g/ml. […] Cells were sera starved in 1% FBS for 24 hours. Cells were treated with IS181 for 24 hours. After 24 h, cells were again treated with IS181 for 24 hours. After 48 h of first treatment, cells were processed for TUNEL staining. Fold increase in apoptotic cells [TUNEL positive] was calculated with respect to untreated control cells. Positive control: Curcumin, Anthralin, Betullinic acid. […] No increase in TUNEL positive cells was observed from 100 μg/ml-2000 μg/ml.

[9] = system: Cyclobutane Pyrimidine Dimers (CPD); test: UVB damage: cyclobutane pyrimidine dimers (ELISA); type: cell-based, human; details: HaCaT
Description: Effect on Cyclobutane Pyrimidine Dimers (CPD); Effect on 8-oxo-G formation: Cell line: HaCaT (human keratinocytes); test items: IS 181; concentration range: 0.1-100 μg/ml (Duplicate wells). Method of estimation: Plating of cells; Sera starvation with 0.1% FBS (24 hours); treatment of cells with test items (24 hours); UVB damage (30 mJ/cm2)+Test items addition (24 hours); Cyclobutane pyrimidine dimers (CPD) and 8-oxo-G estimation using ELISA.

[10] = 10% v/v Propylene glycol in 0.9% NaCl (for IM& SC)

H-WVQRVVEKFLK-OH [IS181, H-Trp-Val-Gln-Arg-Val-Val-Glu-Lys-Phe-Leu-Lys-OH]
IL-6 % decrease with respect to LPS + PMA ([1]; 0.1 μg/ml): −58.3%
IL-6 Conc ([1]; 0.1 μg/ml): 23.7 pg/mL
IL-6 % decrease with respect to LPS + PMA ([1]; 1 μg/ml): −78.5%
IL-6 Conc ([1]; 1 μg/ml): 26.7 pg/mL
IL-6 % decrease with respect to LPS + PMA ([1]; 5 μg/ml): −56.5%
IL-6 Conc ([1]; 5 μg/ml): 23.4 pg/mL
IL-6 % decrease with respect to LPS + PMA ([1]; 10 μg/ml): −48.0%
IL-6 Conc ([1]; 10 μg/ml): 22.1 pg/mL
IL-6 % decrease with respect to LPS + PMA ([1]; 100 μg/ml): −160.6%
IL-6 Conc ([1]; 100 μg/ml): 39.0 pg/mL
inhibition at 10 µg/mL ([2]; 10 μg/ml): 14%
inhibition at 50 µg/mL ([2]; cell free, 50 μg/ml): 14%
inhibition at 100 µg/mL ([2]; cell free, 100 μg/ml): -42%
inhibition at 250 µg/mL ([2]; cell free, 250 μg/ml): -93%
inhibition at 500 µg/mL ([2]; cell free, 500 μg/ml): -185%
cytotoxicity at 72 h, 5000 μg/ml ([3]; HaCaT keratinocyte cells): 96.1%
cytotoxicity at 72 h, 10 μg/ml ([3]; HaCaT keratinocytes): 16.7%
cytotoxicity at 72 h, 50 μg/ml ([3]; HaCaT keratinocytes): 17.8%
cytotoxicity at 72 h, 500 μg/ml ([3]; HaCaT keratinocytes): 26.9%
cytotoxicity at 72 h, 1000 μg/ml ([3]; HaCaT keratinocytes): 82.8%
cytotoxicity at 72 h, 2000 μg/ml ([3]; HaCaT keratinocytes): 75%
Green fluorescence intensity (RFU) ([4]; 400 μg/ml): 13.67 ± 1.89 RFU
Red fluorescence intensity (RFU) ([4]; 400 μg/ml): 134.33 ± 32.06 RFU
Red fluorescence intensity/Green fluorescence intensity ([4]; 400 μg/ml): 9.83
Green fluorescence intensity (RFU) ([4]; 475 μg/ml): 14.83 ± 3.54 RFU
Red fluorescence intensity (RFU) ([4]; 475 μg/ml): 150.67 ± 11.31 RFU
Red fluorescence intensity/Green fluorescence intensity ([4]; 475 μg/ml): 10.16
Green fluorescence intensity (RFU) ([4]; 500 μg/ml): 14.5 ± 2.12 RFU
Red fluorescence intensity (RFU) ([4]; 500 μg/ml): 152.83 ± 31.82 RFU
Red fluorescence intensity/Green fluorescence intensity ([4]; 500 μg/ml): 10.54
Green fluorescence intensity (RFU) ([4]; 750 μg/ml): 17.67 ± 4.24 RFU
Red fluorescence intensity (RFU) ([4]; 750 μg/ml): 126.17 ± 6.36 RFU
Red fluorescence intensity/Green fluorescence intensity ([4]; 750 μg/ml): 7.14
decrease in mitochondrial membrane potential (R/G ratio) as compared to untreated cells ([4]; 750 μg/ml to 2 mg/ml): 34% to 88.6%
Green fluorescence intensity (RFU) ([4]; 1000 μg/ml): ^#25.83 ± 5.42^ RFU
Red fluorescence intensity (RFU) ([4]; 1000 μg/ml): ^#102.25 ± 4.60 ^ RFU
Red fluorescence intensity/Green fluorescence intensity ([4]; 1000 μg/ml): 3.96
Green fluorescence intensity (RFU) ([4]; 2000 μg/ml): #41.25 ± 15.20 RFU
Red fluorescence intensity (RFU) ([4]; 2000 μg/ml): ^#50.58 ± 0.12^ RFU
Red fluorescence intensity/Green fluorescence intensity ([4]; 2000 μg/ml): **1.23
inhibition at 50 µg/mL ([5]; 50 μg/ml): 8%
inhibition at 100 µg/mL ([5]; 100 μg/ml): -10%
inhibition at 250 µg/mL ([5]; 250 μg/ml): -26%
inhibition at 500 µg/mL ([5]; 500 μg/ml): -49%
inhibition at 1000 µg/mL ([5]; 1000 μg/ml): -81%
inhibition at 2000 µg/mL ([5]; 2000 μg/ml): -147%
inhibition at 50 µg/mL ([6]; 50 μg/ml): 44%
inhibition at 100 µg/mL ([6]; 100 μg/ml): -16%
inhibition at 250 µg/mL ([6]; 250 μg/ml): -28%
inhibition at 500 µg/mL ([6]; 500 μg/ml): -44%
inhibition at 1000 µg/mL ([6]; 1000 μg/ml): -110%
MFC ([7]; 0.9% NaCl (for IV)): >25.0 mg/mL
Stability of formulation at RT ([7]; 0.9% NaCl (for IV)): Up to 24 hrs
MFC [7, 10]: >25.0 mg/mL
Stability of formulation at RT [7, 10]: Up to 24 hrs
increase in TUNEL positive cells ([8]; 100 μg/ml-2000 μg/ml): No increase
increase in apoptotic cells (TUNEL positive population) vs untreated ([8]; 5000 μg/ml): 28.3%
decrease in CPD ([9]; UVB 30 mJ/cm2, 10 μg/ml): 28%
decrease in CPD ([9]; UVB 30 mJ/cm2, 100 μg/ml): 26%
